{"source": "patent US11124818B2", "about": "(priority 2017, dated 2021)", "key": {"[1]": {"system": "OATP1B1-expressing HeLa and RKO cells", "format": "cell-based"}, "[2]": {"system": "type 1 protein phosphatases", "conditions": "cited from earlier work"}, "[3]": {"system": "OATP1B1-expressing HeLa and RKO cells", "conditions": "cited from earlier work"}, "[4]": {"system": "OATP1B3-expressing HeLa and RKO cells", "conditions": "cited from earlier work"}, "human tumor cell lines": {"system": "human tumor cell lines", "conditions": "cited from earlier work"}}, "note": "Starred links: 1 amine or outer side, 2 acyl side, 3 side chain; linkers in the order of their positions; H or OH if unused. Positions of bridges follow the written chain, without caps; N, C: chain ends. Non-standard residues stand in square brackets, D forms with d. Residues, ends and D or L forms follow the SMILES beside them. *: point of attachment. Adda = CO[C@@H](Cc1ccccc1)[C@@H](C)/C=C(C)/C=C/[C@H](N[*:1])[C@H](C)C(=O)[*:2]; dAsp(3S-Me) = C[C@H](C(=O)[*:3])[C@@H](N[*:1])C(=O)[*:2]; Dolaproine = CO[C@@H]([C@@H]1CCCN1)[C@@H](C)C(=O)O; Dil = CC[C@H](C)[C@H](NC)[C@@H](CC(=O)O)OC; d(γGlu) = O=C(O)[C@@H](CCC(=O)[*:2])N[*:1]; X2 = C[C@@H](N*)[C@@H](O)c1ccccc1; NMeV = CN[C@H](C(=O)O)C(C)C; NMeDha = C=C(NC)C(=O)O"}
{"smiles": "C=C1C(=O)N[C@H](C)C(=O)N[C@@H](CC(C)C)C(=O)N[C@@H](C(=O)O)[C@H](C)C(=O)N[C@@H](CCCNC(=N)N)C(=O)N[C@@H](/C=C/C(C)=C/[C@H](C)[C@H](Cc2ccccc2)OC)[C@H](C)C(=O)N[C@@H](C(=O)O)CCC(=O)N1C", "note": "[LR, microcystin-LR] (R[Adda][d(γGlu)][NMeDha][dA]L[dAsp(3S-Me)]-OH; lactam N-7)", "values": [{"measurement": "Ratio 1B1 to 1B3", "setting": "[1]", "result": 0.2}, {"measurement": "IC50", "setting": "[2]", "result": 0.03, "unit": "nM"}, {"measurement": "IC50", "setting": "[3]", "result": 1, "unit": "nM"}, {"measurement": "IC50", "setting": "[4]", "result": 5.1, "unit": "nM"}]}
{"smiles": "C/C=C1/C(=O)N[C@@H](C(=O)O)[C@H](C)C(=O)N[C@@H](CCCNC(=N)N)C(=O)N[C@@H](/C=C/C(C)=C/[C@H](C)[C@H](Cc2ccccc2)OC)[C@H](C)C(=O)N[C@@H](C(=O)O)CCC(=O)N1C", "note": "[NOD, Nodularin]", "values": [{"measurement": "Ratio 1B1 to 1B3", "setting": "[1]", "result": "<0.1"}, {"measurement": "IC50", "setting": "[3]", "result": 8.4, "unit": "nM"}, {"measurement": "IC50", "setting": "[4]", "result": "> 100", "unit": "nM"}]}
{"smiles": "CC[C@H](C)[C@@H]([C@@H](CC(=O)N1CCC[C@H]1[C@H](OC)[C@@H](C)C(=O)N[C@H](C)[C@@H](O)c1ccccc1)OC)N(C)C(=O)[C@@H](NC(=O)[C@@H](NC)C(C)C)C(C)C", "note": "[Monomethyl auristatin E] (H-[NMeV]V[Dil][Dolaproine]-X2)", "values": [{"measurement": "cytotoxic potency", "setting": "human tumor cell lines", "result": "3.9 to 10.3", "unit": "nM"}]}
